Test results from patent US12606538B2, “Benzo[b]selenophene sting regulator, preparation method and use thereof” (CHINA PHARMACEUTICAL UNIVERSITY, priority 2021, dated 2026).
Values after ≈ are worked out from the molar mass of the structure shown. Read-outs that look alike come from different tables or passages of the source.

How the values were obtained:
[1] = tested on: THP1-dual cells; assay: Luciferase assay based on THP1-dual cells; format: cell-based; settings: final concentration of compound 10 μL (so in the source), 24 h at 37° C.
Experimental: (§1) THP1-dual™ (Invivogen: thpd-nfis) cells or RAW-Lucia™ (Invivogen: rawl-isg) cells were diluted using a culture medium, and 180 μL of cell suspension was sucked and inoculated in a 96-well plate, such that each well contain 1×10^5 cells. 20 μL of a compound to be tested was added into the 96-well plate (the final concentration of said compound was […], and the final volume of each well was […]) and cultured at 37° C. for 24 h. 10 μL of supernatant was sucked into a new 96-well white plate, and 50 μL of a QUANT-Luc reagent was added. After full and even mixing, a microplate reader was used immediately for determination. There were three repeated wells set in the assay. The test result was represented as agitation fold and calculated by (test well−blank well)/(negative well−blank well). The test result was in the following tablet, with 2′,3′-cGAMP as a positive control, where *** represented an agitation fold of 20 or more, ** represented an agitation fold of 10 to 20, and * represented an agitation fold of 1 to 10.

[2] = tested on: RAW-Lucia cells; assay: Luciferase assay based on RAW-Lucia cells; format: cell-based; settings: 24 h at 37° C.
Experimental: as §1

[3] = tested on: THP1 cells; assay: THP1 cell growth inhibition activity; format: cell-based
Source text: (§2) The test result was shown in the following table, with MSA2 (Science. 2020, 369, eaba6098) as a reference compound.

[4] = LogP; format: physicochemical
Source text: as §2

[5] = Water solubility; format: physicochemical
Source text: as §2

[6] = Stability of human plasma within 24 h; format: in vitro ADME
Source text: as §2

[7] = Stability of rat liver microsome within 2 h; format: in vitro ADME
Source text: as §2

[8] = tested on: THP1 cells; assay: Interferon β induction assay based on THP1 cells (ELISA); format: cell-based; settings: Homo sapiens, THP-1, compound 20 μM, 3.5 h, read-out: Secretion of IFNβ in THP1 cells, effect relative to 2′,3′-cGAMP at 20 μM (%)
Experimental: Secreted cytokine IFNβ was determined by ELISA. THP1 cells were inoculated in a 96-well plate (there was no serum contained in an RPMI 1640 medium), such that the number of cells in each well ranged from 5×10^5 to 7×10^5. A DMSO stock solution of 10 mM was prepared from a compound to be tested, diluted with a culture medium to a target concentration to be added into the 96-well plate containing cells (the final concentration of said compound was 20 μM, and the final volume of each well was 200 μL), and cultured at 37° C. in 5% CO2 for 3.5 h. The cells were collected at 4° C. and centrifuged at 1,000 rpm for 20 mins, and supernate was collected for ELISA determination. There were three repeated wells set in the assay. The result was shown in the following tablet, with 2′,3′-cGAMP as a positive control, where the test result was represented as a percentage of activity relative to 2′,3′-cGAMP at a concentration of 20 μM.

[9] = PBS, aqueous buffer, read-out: water solubility, PBS
[10] = water, read-out: water solubility, Water
[11] = stability of human plasma within 24 h
[12] = stability of rat liver microsome within 2 h

| SMILES | Agitation activity in luciferase assay, THP1-dual (agitation fold) [1] | Agitation activity in luciferase assay, RAW-Lucia (agitation fold) [2] | IC50 ([3]; Homo sapiens, THP-1) [µM] | logP ([4]; read-out: LogP) | solubility [5, 9] [µg/mL] | solubility [5, 10] [µg/mL] | hPlasma @ 24 h (%) [6, 11] [%] | RLM @ 2 h (%) [7, 12] [%] | Emax at 20 µM [8] [%] | IC50 [3] [µM] | logP [4] | water solubility, PBS [5] [µg/mL] | water solubility, Water [5] [µg/mL] | hPlasma @ 24 h (%) [6] [%] | RLM @ 2 h (%) ([7]; rat, microsomes, 2 h) |
| --- | --- | --- | --- | --- | --- | --- | --- | --- | --- | --- | --- | --- | --- | --- | --- |
| COc1cc2cc(C(=O)CCC(=O)O)[se]c2cc1OC [I-1, 4-(5,6-dimethoxybenzo[b]selenophene-2-yl)-4-oxobutanoic acid] | *** (*** represented an agitation fold of 20 or more) | *** (*** represented an agitation fold of 20 or more) | > 100 | 2.5 | 1900 (≈ 5570 µM) | 36 (≈ 106 µM) | >90 | >90 | 259 |  |  |  |  |  |  |
| COc1cc2cc(C(=O)CC(C)C(=O)O)[se]c2cc1OC (stereo not drawn) [I-2, 4-(5,6-dimethoxybenzo[b]selenophene-2-yl)-2-methyl-4-oxo-butanoic acid] | *** (*** represented an agitation fold of 20 or more) | *** (*** represented an agitation fold of 20 or more) | > 100 | 2.4 | 1000 (≈ 2810 µM) | 30 (≈ 84.4 µM) | >90 | >90 | 245 |  |  |  |  |  |  |
| CCC(CC(=O)c1cc2cc(OC)c(OC)cc2[se]1)C(=O)O (stereo not drawn) [I-14, 4-(5,6-dimethoxybenzo[b]selenophene-2-yl)-2-ethyl-4-oxo-butanoic acid] | *** (*** represented an agitation fold of 20 or more) | *** (*** represented an agitation fold of 20 or more) | > 100 | 2.7 | 700 (≈ 1900 µM) | 28 (≈ 75.8 µM) | >90 | >90 | 260 |  |  |  |  |  |  |
| COc1cc2cc(C(=O)CCC(=O)O)sc2cc1OC [MSA2, reference compound] |  |  |  |  |  |  |  |  |  | > 100 | 1.5 | 400 (≈ 1360 µM) | 6 (≈ 20.4 µM) | >90 | >90 |
